Test results: patent US12433885B2, “Procaspase combination therapy for glioblastoma” (THE BOARD OF TRUSTEES OF THE UNIVERSITY OF ILLINOIS, priority 2012, dated 2025)

Key:
9 L (rat glioma) cells = test: 9 L intracranial syngeneic rat glioma model, overall survival; type: in vivo; settings: for Median survival: F344 rats, intracranial 9 L, PAC-1 50 mg/kg oral gavage days 0-4, TMZ 50 mg/kg oral gavage days 5-9, 8 rats per group
Experimental: 9 L (rat glioma) cells were intracranially implanted in rats. PAC-1 (50 mg/kg in water) was administered via oral gavage on days 0-4, and TMZ (50 mg/kg in water) was given via oral gavage on days 5-9; 8 rates per group.
The in vivo rat experiments employed 9 L cells, a very aggressive tumor model, implanted inter-cranially in rats in 3 treatment groups (PAC-1 alone, TMZ alone, and the combination of PAC-1 and TMZ) and one control group.
PAC-1 was suspended in water, and given to the rats via oral gavage at 50 mg/kg (a relatively low dose) for 5 days followed by five days of TMZ dosing.
PAC-1 (50 mg/kg in water) was administered via oral gavage on days 0-4, and TMZ (50 mg/kg in H2O) was given via oral gavage on days 5-9.
9 L gliosarcoma was maintained as a solid subcutaneous mass in the flanks of F344 rats. For intracranial implantation, the 9 L gliosarcoma tumor was surgically excised from the carrier animal and sliced into 1 mm^3 pieces at the time of implantation.
The animals were divided into the following four experimental groups with eight animals per group: (1) Control, (2) PAC-1 alone, (3) TMZ alone, and (4) PAC-1+TMZ. The control animals only received water. Two groups of animals from PAC-1 alone and PAC-1+TMZ received an oral gavage of PAC-1 suspended in water starting day 0 six hours post implantation. PAC-1 was administered only for 5 days from day 0 to day 4. The animals from TMZ alone and PAC-1+TMZ groups received 5 doses of TMZ in water administered orally from day 5 to day 9.

K7M2 cells = test: Mouse model of metastatic osteosarcoma, survival; type: in vivo; settings: oral PAC-1 100 mg/kg in HPβCD and TMZ 50 mg/kg, sequential, daily for five consecutive days, from seven days after K7M2 injection; n=8 mice per group
Experimental: FIG. 4. PAC-1 synergizes with TMZ to extend survival in a mouse model of metastatic osteosarcoma. Seven days after injection of K7M2 cells, mice were treated orally with PAC-1 (100 mg/kg in HPβCD), TMZ (50 mg/kg […]), or a sequential treatment with each, daily for five consecutive days; n=8 mice per group.

9 L cell line = test: IC50 of PAC-1 with the 9 L cell line; type: cell-based; settings: Rattus norvegicus; 72 hour experiment; initial assessment
Experimental: The initial assessment for the IC50 for PAC-1 with the 9 L cell line is about 7 μM (72 hour experiment).

[1] = Neurotoxicity of oral PAC-1 in mice; type: in vivo; settings: given orally at up to 200 mg/kg

Cn1nnc2c(C(N)=O)ncn2c1=O [TMZ, Temozolomide, reference compound]
Median survival (9 L (rat glioma) cells): 20 days

C=CCc1cccc(/C=N/NC(=O)CN2CCN(Cc3ccccc3)CC2)c1O [PAC-1, 2-(4-benzylpiperazin-1-yl)-N-[(2-hydroxy-3-prop-2-enyl-phenyl)methylideneamino]acetamide]
Synergy with TMZ to extend survival (K7M2 cells): synergizes
IC50 (9 L cell line): ~7 µM
Neurotoxicity [1]: No neurotoxicity was observed
Median survival (9 L (rat glioma) cells): 13.5 days
Neurotoxicity (9 L (rat glioma) cells; rats, PAC-1 50 mg/kg oral gavage for 5 days followed by five days of TMZ dosing): no neurotoxicity was observed
